Experimental data published in patent US9428542B2, “Lupane triterpenoid derivatives and pharmaceutical use thereof” (priority 2012, dated 2016).

How the values were obtained:
HIV-1IIIB = test: HIV-1 full replication assay (HIV-1IIIB-infected MT-2 cells, supernatant read out on TZM-bl cells, β-Gal); format: cell-based; settings: inhibiting HIV-1IIIB replication in MT-2 cells, 3 days; for IC50: Human immunodeficiency virus 1, MT2, 72 h, read-out: IC50 (PM)
Method: The antiviral activity of the compounds of the present invention was determined in a HIV-1 full replication assay.
In this assay, MT-2 cells that are infected with HIV-1IIIB were co-cultured with different concentration of the tested compounds for 3 days and then supernatant is transferred into new 384-well plates containing TZM-bl cells (also called JC53-bl). TZM-bl cells that could be infected by various kinds of HIV-1 strains stably express a great amount of HIV-1 receptor, co-receptor CD4 molecular, and co-receptor CXCR4 and CCR5. TZM-bl cells harbor LTR-luciferase and β-gal two report genes. The expression of luciferase and β-gal reporter directed by HIV-1 LTR can be activated by Tat protein generated after HIV infection, and the quantity of expression is proportional to the quantity of HIV-1. Compounds that interfere with virus replication in MT-2 cells, maturation of the virus, or post-entry steps in the HIV lifecycle decrease the luciferase signal or β-gal signal. In this experiment, BVM (Bevirimat, PA-457) is used as a positive control drug.
Method for Inhibiting HIV-1 Replication Assay:
The MT-2 cells are infected at a Multiciplicity (MOI) of 0.01 TCID50, and then the MT-2 cells suspension was diluted to a needed concentration. 90 μl of the MT-2 cells suspension from above was added into 384-well plates containing 10 μl of the tested compounds.
Compounds were dissolved in DMSO and tested as 11 points 3-fold serial dilutions. After addition of cells to compound plates, plates were placed to humidified 5% CO2 37 incubator for 3 days. 10 μl of cells culture supernatant from the incubated plates was transferred into new black 384-well plates.
Adjusted the TZMb1 cells concentration and 40 μl of TZMb1 cells was added into each well in the black 384-well plates. After addition of the TZMb1 cells to the black plates, black plates were placed to humidified 5% CO2 37 incubator for 24 h, then β-Gal activity was measured.
The anti viral activity %=(measured number-lowest mean number)/(highest mean number-lowest mean number)×100. The IC50 values were calculated by Median Equation and the IC curve was generated by Graphpad Prism V 5.03.
(§1) TC50 is referred to the toxicity in MT-2 cells by the compounds tested at 50% concentration; IC50 is referred to the inhibiting HIV-1IIIB replication in MT-2 cells by the compounds tested at 50% concentration; Therapeutic Index (TI)=TC50/IC50.

MT-2 cells = test: Compounds' cytotoxicity assay in MT-2 cells (CellTiter-Glo); format: cell-based; parameters: unit not given here; settings: toxicity in MT-2 cells, 3 days
Method: 3. Method for Compounds' Cytotoxicity Assay:
The MT-2 cells are diluted to a needed concentration. 90 μl of the MT-2 cells suspension was added into 384-well plates containing 10 μl of the tested compounds. Compounds were dissolved in DMSO and tested as 11 points 3-fold serial dilutions. After addition of cells to compound plates, plates were placed to humidified 5% CO2 37 incubator for 3 days. The Luciferase activity was measured by CellTiter-Glo® Luminescent Cell Viability Assay kit (Promega Corp., WI, USA).
as §1

SMILES	IC50 (HIV-1IIIB) [nM]	TC50 (PM) (MT-2 cells)	IC50 (PM) (HIV-1IIIB) [nM]
CC(C)C1=C2[C@H]3CC[C@@H]4[C@@]5(C)CC[C@H](OC(=O)CC(C)(C)C(=O)O)C(C)(C)[C@@H]5CC[C@@]4(C)[C@]3(C)CC[C@@]2(c2nnc(-c3ccncc3)o2)CC1=O [Compound 27-13]	17	200	–
CC(C)C1=C2[C@H]3CC[C@@H]4[C@@]5(C)CC[C@H](OC(=O)CC(C)(C)C(=O)O)C(C)(C)[C@@H]5CC[C@@]4(C)[C@]3(C)CC[C@@]2(c2nnc(-c3ncc(Cl)cn3)o2)CC1=O [Compound 27-14]	4.9	46	–
CC(C)C1=C2[C@H]3CC[C@@H]4[C@@]5(C)CC[C@H](OC(=O)CC(C)(C)C(=O)O)C(C)(C)[C@@H]5CC[C@@]4(C)[C@]3(C)CC[C@@]2(Cc2nnc(Cc3ccc(Cl)cc3)o2)CC1=O [Compound 33]	1.6	18	–
CC(C)C1=C2[C@H]3CC[C@@H]4[C@@]5(C)CC[C@H](OC(=O)CC(C)(C)C(=O)O)C(C)(C)[C@@H]5CC[C@@]4(C)[C@]3(C)CC[C@@]2(c2nnc(Cc3ccc(Cl)cc3)o2)CC1=O [Compound 38]	1.6	100	–
CC(C)C1=C2[C@H]3CC[C@@H]4[C@@]5(C)CC[C@H](OC(=O)CC(C)(C)C(=O)O)C(C)(C)[C@@H]5CC[C@@]4(C)[C@]3(C)CC[C@@]2(c2ncc(-c3ccc(Cl)cc3)o2)CC1=O [Compound 65]	58	17.68	–
CC(C)C1=C2[C@H]3CC[C@@H]4[C@@]5(C)CC[C@H](OC(=O)CC(C)(C)C(=O)O)C(C)(C)[C@@H]5CC[C@@]4(C)[C@]3(C)CC[C@@]2(c2cnc(-c3ccc(Cl)cc3)o2)CC1=O [Compound 77]	159	200	–
CC(C)C1=C2[C@H]3CC[C@@H]4[C@@]5(C)CC[C@H](OC(=O)CC(C)(C)C(=O)O)C(C)(C)[C@@H]5CC[C@@]4(C)[C@]3(C)CC[C@@]2(c2cc(=O)n(Cc3ccccc3)n2C)CC1 [Compound 89-2]	58.4	37	–
CC(C)C1=C2[C@H]3CC[C@@H]4[C@@]5(C)CC[C@H](OC(=O)CC(C)(C)C(=O)O)C(C)(C)[C@@H]5CC[C@@]4(C)[C@]3(C)CC[C@@]2(c2cc(=O)n(CC(=O)O)n2C)CC1=O [Compound 91-5]	–	160	2110
CC(C)C1=C2[C@H]3CC[C@@H]4[C@@]5(C)CC[C@H](OC(=O)CC(C)(C)C(=O)O)C(C)(C)[C@@H]5CC[C@@]4(C)[C@]3(C)CC[C@@]2(c2cc(=O)n(CC(N)=O)n2C)CC1=O [Compound 91-6]	2	48	–
CNC(=O)Cn1c(=O)cc([C@@]23CC[C@]4(C)[C@H](CC[C@@H]5[C@@]6(C)CC[C@H](OC(=O)CC(C)(C)C(=O)O)C(C)(C)[C@@H]6CC[C@]54C)C2=C(C(C)C)C(=O)C3)n1C [Compound 91-7]	0.7	68	–
CC(C)C1=C2[C@H]3CC[C@@H]4[C@@]5(C)CC[C@H](OC(=O)CC(C)(C)C(=O)O)C(C)(C)[C@@H]5CC[C@@]4(C)[C@]3(C)CC[C@@]2(c2cc(=O)n(CC(=O)N(C)C)n2C)CC1=O [Compound 91-8]	3.3	48	–
CC(C)C1=C2[C@H]3CC[C@@H]4[C@@]5(C)CC[C@H](OC(=O)CC(C)(C)C(=O)O)C(C)(C)[C@@H]5CC[C@@]4(C)[C@]3(C)CC[C@@]2(c2cc(=O)n(Cc3ccc(Cl)cn3)n2C)CC1=O [Compound 91-9]	≤ 0.17	26	–
CC(C)C1=C2[C@H]3CC[C@@H]4[C@@]5(C)CC[C@H](OC(=O)CC(C)(C)C(=O)O)C(C)(C)[C@@H]5CC[C@@]4(C)[C@]3(C)CC[C@@]2(c2cc(=O)n(-c3ccc(Cl)cc3)n2C)CC1 [Compound 96-1]	33	17	–
CC(C)C1=C2[C@H]3CC[C@@H]4[C@@]5(C)CC[C@H](OC(=O)CC(C)(C)C(=O)O)C(C)(C)[C@@H]5CC[C@@]4(C)[C@]3(C)CC[C@@]2(c2cc(=O)n(-c3ccc(Cl)cc3)n2C)CC1=O [Compound 98-1]	1.6	24	–
COc1ccc(-n2c(=O)cc([C@@]34CC[C@]5(C)[C@H](CC[C@@H]6[C@@]7(C)CC[C@H](OC(=O)CC(C)(C)C(=O)O)C(C)(C)[C@@H]7CC[C@]65C)C3=C(C(C)C)C(=O)C4)n2C)cn1 [Compound 98-2]	3	44	–
CC(C)C1=C2[C@H]3CC[C@@H]4[C@@]5(C)CC[C@H](OC(=O)CC(C)(C)C(=O)O)C(C)(C)[C@@H]5CC[C@@]4(C)[C@]3(C)CC[C@@]2(c2cc(=O)n(-c3ccc(F)cc3)n2C)CC1=O [Compound 98-3]	0.46	42	–
CC(C)C1=C2[C@H]3CC[C@@H]4[C@@]5(C)CC[C@H](OC(=O)CC(C)(C)C(=O)O)C(C)(C)[C@@H]5CC[C@@]4(C)[C@]3(C)CC[C@@]2(c2cc(=O)n(-c3ccc(C#N)cc3)n2C)CC1=O [Compound 98-4]	0.81	36	–
CCn1c([C@@]23CC[C@]4(C)[C@H](CC[C@@H]5[C@@]6(C)CC[C@H](OC(=O)CC(C)(C)C(=O)O)C(C)(C)[C@@H]6CC[C@]54C)C2=C(C(C)C)C(=O)C3)cc(=O)n1-c1ccc(Cl)cc1 [Compound 98-5]	≤ 0.17	13	–
CCn1c([C@@]23CC[C@]4(C)[C@H](CC[C@@H]5[C@@]6(C)CC[C@H](OC(=O)CC(C)(C)C(=O)O)C(C)(C)[C@@H]6CC[C@]54C)C2=C(C(C)C)C(=O)C3)cc(=O)n1-c1ccc(Cl)cn1 [Compound 98-6]	≤ 0.17	13	–
CC(C)C1=C2[C@H]3CC[C@@H]4[C@@]5(C)CC[C@H](OC(=O)CC(C)(C)C(=O)O)C(C)(C)[C@@H]5CC[C@@]4(C)[C@]3(C)CC[C@@]2(c2cc(=O)n(-c3ccc(Cl)cn3)n2C)CC1=O [Compound 98-7]	≤ 0.17	200	–
CC(C)C1=C2[C@H]3CC[C@@H]4[C@@]5(C)CC[C@H](OC(=O)CC(C)(C)C(=O)O)C(C)(C)[C@@H]5CC[C@@]4(C)[C@]3(C)CC[C@@]2(c2nnc(-c3ccc(Cl)cc3)s2)CC1=O [Compound 102]	175	9.93	–
CC(C)C1=C2[C@H]3CC[C@@H]4[C@@]5(C)CC[C@H](OC(=O)CC(C)(C)C(=O)O)C(C)(C)[C@@H]5CC[C@@]4(C)[C@]3(C)CC[C@@]2(Cc2nc(-c3ccc(Cl)cc3)no2)CC1=O [Compound 108-2]	160	26	–
CC(C)C1=C2[C@H]3CC[C@@H]4[C@@]5(C)CC[C@H](OC(=O)CC(C)(C)C(=O)O)C(C)(C)[C@@H]5CC[C@@]4(C)[C@]3(C)CC[C@@]2(Cc2nnc(-c3ccc(Cl)cc3)n2CCN(C)C)CC1=O [Compound 116-1]	≤ 0.17	35	–
CNCCn1c(C[C@@]23CC[C@]4(C)[C@H](CC[C@@H]5[C@@]6(C)CC[C@H](OC(=O)CC(C)(C)C(=O)O)C(C)(C)[C@@H]6CC[C@]54C)C2=C(C(C)C)C(=O)C3)nnc1-c1ccc(Cl)cc1 [Compound 116-2]	4.8	27	–
CC(C)C1=C2[C@H]3CC[C@@H]4[C@@]5(C)CC[C@H](OC(=O)CC(C)(C)C(=O)O)C(C)(C)[C@@H]5CC[C@@]4(C)[C@]3(C)CC[C@@]2(c2nnc(-c3ccc(Cl)cc3)n2CCN(C)C)CC1=O [Compound 116-3]	0.55	33	–
CC(C)C1=C2[C@H]3CC[C@@H]4[C@@]5(C)CC[C@H](OC(=O)CC(C)(C)C(=O)O)C(C)(C)[C@@H]5CC[C@@]4(C)[C@]3(C)CC[C@@]2(Cc2nnc(-c3ccc(Cl)cc3)n2CCN)CC1=O [Compound 116-4]	2.5	33	–
CC(C)C1=C2[C@H]3CC[C@@H]4[C@@]5(C)CC[C@H](OC(=O)CC(C)(C)C(=O)O)C(C)(C)[C@@H]5CC[C@@]4(C)[C@]3(C)CC[C@@]2([C@@H](O)c2nnc(-c3ccc(Cl)cc3)o2)CC1=O [Compound 127-1]	1.6	200	–
